We go through one compound from US20210038730A1, “PEPTIDE NANOFIBERS” (UNIVERSITY OF PORTSMOUTH HIGHER EDUCATION CORPORATION, priority 2018, published 2021).

SMILES strings stand for the structures.

One data set concerns SC-1800 cells. Briefly: Cytotoxicity (MTT) in cerebral astrocytes. Type of data set: cell-based, human. Conditions: 3.5-140 μM, 4 and 24 hours. The protocol:
Human brain microvessel endothelial cells (hCMEC/D3) and cerebral astrocytes (SC-1800) were maintained in a humidified atmosphere of 5% CO2, and the medium was refreshed every 2-3 days. hCMEC/D3 cells were cultured in endothelial basal medium-2 (EBM-2) supplemented with the EGM-2 Bullet Kit and 2% (v/v) human serum. SC-1800 were cultured in astrocytes basal medium (ABM) supplemented with AGM Bullet Kit and 3% (v/v) human serum. […] Subsequently, complete growth medium (4 mL) was added and cells were centrifuged using a C-28A centrifuge (Boeco, Hamburg, Germany) at 1,000 rpm for 5 minutes. Supernatant was discarded, and pellet was re-suspended in 1 mL of medium. The cell number was counted using Trypan Blue Exclusion Assay in the Countess II Automated Cell Counter (Thermo Scientific, Paisley, UK). hCMEC/D3 and SC-1800 cells were seeded at 20,000 cells/cm^2 in complete medium and allowed to attach overnight. […] Cell metabolic activity was measured after 4 and 24 hours using (3-(4,5)-dimethylthiazol-2-yl)-2,5-diphenyltetrazolium bromide ([…]) assay. […] Subsequently, DMSO (100 μL) was added to dissolve the formazan crystals and absorbance was measured at 570 and 690 nm. Metabolic activity was calculated by subtracting the absorbance values at 690 nm to 570 nm to remove background, and dividing the values by the control to express as a percentage (%) of the control using the equation below. […]

The test system of data set [1] is U-87 MG cells. Briefly: Cell proliferation (BrdU ELISA). It is filed as cell-based, human. Conditions: >7 μM, every two days, 6 days of treatment. The protocol:
(§1) In vitro antitumour effects of TPGnRH and PAX-loaded TPGnRH were assessed in U-87 MG cells, UP-007, UP-029, SEBTA-023 MDA-MD-231 [triple negative (ER^−, PR—, HER2^−) breast cancer cell line] and SK-OV-3 (human ovarian carcinoma with a low expression of GnRH-R). Cells were seeded at 1,400 cells/cm^2 and allowed to attach and grow for 3 days. In experiments with TPGnRH nanofibers alone (to obtain the IC50 value in each cell line), cells were treated with medium supplemented with the peptide solutions in PBS (0.7 to 700 μM) to achieve a final concentration of 0.07 to 70 μM per well. Media was replaced by fresh media every two days for 6 days. […] On day 4, PAX-loaded TPGnRH nanofibers containing 1 nM of PAX and 7 or 35 μM of TPGnRH were added and the effect on cell viability, proliferation, cell cycle, and apoptosis was assessed on day 6. Only for the MDA-MB-231 cells, on day 4, PAX-loaded TPGnRH nanofibers containing 10 nM of PAX and 7 or 35 μM of TPGnRH were added and the effect on cell viability, proliferation, cell cycle, and apoptosis was also assessed on day 6. […] Cell metabolic activity was measured using MTT assay. […] Afterwards, dimethyl sulfoxide (100 μL) was added to the wells to dissolve the formazan crystals and the absorbance was measured at 570 and 690 nm. […] Cells were incubated with BrdU for 24 hours before the end of the pre-determined time-points. […]

Data set [2] deals with U-87 MG cells. Briefly: Cell cycle (propidium iodide flow cytometry). Type of data set: cell-based, human. The protocol: as §1
For data set [3], the system named is U-87 MG cells. Briefly: Apoptosis (Annexin V-FITC). Type of data set: cell-based, human. Conditions: >7 μM, every two days, 6 days of treatment. The protocol:
as §1

The nature of another data set: in vitro. Conditions: human, tissue homogenate.
Data set [4] is described as follows: Enzymatic stability in rat brain homogenates. To be noted: 50% (v/v) rat brain homogenates.
Experimental: Fresh blood, obtained from adult male Wistar rats, was collected in sterile the 170 I.U. lithium heparin-coated tubes (Vacutainer, BD Bioscience, UK). Blood was centrifuged immediately at 2,000 g for 15 minutes (4° C.) and supernatant was collected and diluted to 50% (v/v) with PBS. Livers and brains were obtained from adult male Wistar rats, and the tissues were blotted to dryness, weighed, sliced into pieces, and homogenised with ice-cold PBS (in 2 mL of buffer g^−1 of tissue) using the glass homogeniser. Then, tissue homogenates were centrifuged at 4,300 g for 1 hour (4° C.) and the supernatants collected. Glioblastoma cell homogenates were prepared using U-87 MG cells. Cells were cultured in Eagle's Minimum Essential Medium (EMEM) supplemented with 10% (v/v) heat-inactivated fetal bovine serum (FBS), 1% (v/v) of non-essential amino acids (NEAA) and 1 mM of sodium pyruvate in T75 flasks with a surface area of 75 cm^2 and maintained in a humidified atmosphere of 5% CO2 at 37° C. Breast cancer cell homogenates were prepared using MDA-MB-231 cells. Cells were cultured in Dulbecco's Modified Eagle Medium (DMEM) supplemented with high levels of glucose (4.5 g/L), 10% (v/v) heat-inactivated fetal bovine serum (FBS), 1% (v/v) of non-essential amino acids (NEAA) and penicillin and streptomycin (500 units/mL) in T75 flasks with a surface area of 75 cm^2 and maintained in a humidified atmosphere of 5% CO2 at 37° C. Media was changed for both cell lines every 3 to 4 days. After reaching confluence, cells were washed twice with Hank's Balanced Salt Solution (HBSS) and incubated with ˜2 mL of TrypLE Enzyme at 37° C. for ˜3 minutes. Then, complete media were added, and cells were centrifuged at 1,000 rpm for 5 minutes in C-28A centrifuge (Boeco, Germany). U-87 MG or MDA-MB-231 cells (˜10×10^6 cells mL^−1) were re-suspended in ice-cold PBS, and homogenised with a 2×5 second pulses with the probe sonicator (UP200S Ultrasonic processor, SciMed, 200 watts, amplitude of 60%). Cell debris were removed by centrifugation at 2,000 rpm for 5 minutes (Jouan B4i, Thermo Scientific, Paisley, UK). Supernatant was collected and stored at −80° C. Total protein concentration in the homogenates was determined using the Bradford assay with bovine serum albumin as a standard. Diluted plasma, tissue or cell homogenates were pre-warmed during ˜30 minutes at 37° C. Peptide stock solutions (Glu-GnRH, goserelin acetate and TPGnRH, 5 mM in PBS, 500 μL) were prepared and added to the homogenate solutions (120 μL). […] Samples were vortexed for 15 minutes, centrifuged for 15 minutes at 12,000 rpm, and the supernatants were collected and analysed by RP-HPLC.
Data set [5] is described as follows: Enzymatic stability in rat liver homogenates. Conditions: 50% (v/v) rat liver homogenates.
Experimental: (§2) Fresh blood, obtained from adult male Wistar rats, was collected in sterile the 170 I.U. lithium heparin-coated tubes (Vacutainer, BD Bioscience, UK). Blood was centrifuged immediately at 2,000 g for 15 minutes (4° C.) and supernatant was collected and diluted to 50% (v/v) with PBS. Livers and brains were obtained from adult male Wistar rats, and the tissues were blotted to dryness, weighed, sliced into pieces, and homogenised with ice-cold PBS (in 2 mL of buffer g^−1 of tissue) using the glass homogeniser. Then, tissue homogenates were centrifuged at 4,300 g for 1 hour (4° C.) and the supernatants collected. Glioblastoma cell homogenates were prepared using U-87 MG cells. Cells were cultured in Eagle's Minimum Essential Medium (EMEM) supplemented with 10% (v/v) heat-inactivated fetal bovine serum (FBS), 1% (v/v) of non-essential amino acids (NEAA) and 1 mM of sodium pyruvate in T75 flasks with a surface area of 75 cm^2 and maintained in a humidified atmosphere of 5% CO2 at 37° C. Breast cancer cell homogenates were prepared using MDA-MB-231 cells. Cells were cultured in Dulbecco's Modified Eagle Medium (DMEM) supplemented with high levels of glucose (4.5 g/L), 10% (v/v) heat-inactivated fetal bovine serum (FBS), 1% (v/v) of non-essential amino acids (NEAA) and penicillin and streptomycin (500 units/mL) in T75 flasks with a surface area of 75 cm^2 and maintained in a humidified atmosphere of 5% CO2 at 37° C. Media was changed for both cell lines every 3 to 4 days. After reaching confluence, cells were washed twice with Hank's Balanced Salt Solution (HBSS) and incubated with ˜2 mL of TrypLE Enzyme at 37° C. for ˜3 minutes. Then, complete media were added, and cells were centrifuged at 1,000 rpm for 5 minutes in C-28A centrifuge (Boeco, Germany). U-87 MG or MDA-MB-231 cells (˜10×10^6 cells mL^−1) were re-suspended in ice-cold PBS, and homogenised with a 2×5 second pulses with the probe sonicator (UP200S Ultrasonic processor, SciMed, 200 watts, amplitude of 60%). Cell debris were removed by centrifugation at 2,000 rpm for 5 minutes (Jouan B4i, Thermo Scientific, Paisley, UK). Supernatant was collected and stored at −80° C. Total protein concentration in the homogenates was determined using the Bradford assay with bovine serum albumin as a standard. Diluted plasma, tissue or cell homogenates were pre-warmed during ˜30 minutes at 37° C. Peptide stock solutions (Glu-GnRH, goserelin acetate and TPGnRH, 5 mM in PBS, 500 μL) were prepared and added to the homogenate solutions (120 μL). PAX-loaded nanofibers prepared at a ratio of 1:7.36 [PAX:TPGnRH consisting of 3 μmol (2.56 mg mL^−1) of PAX, 22.02 μmol (31.46 mg mL^−1) of TPGnRH], as previously described, and further diluted in PBS to achieve a concentration of 5 mM of TPGnRH and 500 nM of PAX (120 μL) were added to the homogenates. At various time intervals, an aliquot was collected (80 μL) and added to ice-cold ACN (80 μL) to quench the enzymatic activity. Samples were stored at −80° C. for at least 3 hours to maximise protein precipitation. Samples were vortexed for 15 minutes, centrifuged for 15 minutes at 12,000 rpm, and the supernatants were collected and analysed by RP-HPLC.
The nature of data set [6]: Enzymatic stability in U-87 MG cell homogenates. To be noted: analyte in brackets of label.
Experimental: Fresh blood, obtained from adult male Wistar rats, was collected in sterile the 170 I.U. lithium heparin-coated tubes (Vacutainer, BD Bioscience, UK). Blood was centrifuged immediately at 2,000 g for 15 minutes (4° C.) and supernatant was collected and diluted to 50% (v/v) with PBS. Livers and brains were obtained from adult male Wistar rats, and the tissues were blotted to dryness, weighed, sliced into pieces, and homogenised with ice-cold PBS (in 2 mL of buffer g^−1 of tissue) using the glass homogeniser. Then, tissue homogenates were centrifuged at 4,300 g for 1 hour (4° C.) and the supernatants collected. Glioblastoma cell homogenates were prepared using U-87 MG cells. Cells were cultured in Eagle's Minimum Essential Medium (EMEM) supplemented with 10% (v/v) heat-inactivated fetal bovine serum (FBS), 1% (v/v) of non-essential amino acids (NEAA) and 1 mM of sodium pyruvate in T75 flasks with a surface area of 75 cm^2 and maintained in a humidified atmosphere of 5% CO2 at 37° C. Breast cancer cell homogenates were prepared using MDA-MB-231 cells. Cells were cultured in Dulbecco's Modified Eagle Medium (DMEM) supplemented with high levels of glucose (4.5 g/L), 10% (v/v) heat-inactivated fetal bovine serum (FBS), 1% (v/v) of non-essential amino acids (NEAA) and penicillin and streptomycin (500 units/mL) in T75 flasks with a surface area of 75 cm^2 and maintained in a humidified atmosphere of 5% CO2 at 37° C. Media was changed for both cell lines every 3 to 4 days. After reaching confluence, cells were washed twice with Hank's Balanced Salt Solution (HBSS) and incubated with ˜2 mL of TrypLE Enzyme at 37° C. for ˜3 minutes. Then, complete media were added, and cells were centrifuged at 1,000 rpm for 5 minutes in C-28A centrifuge (Boeco, Germany). […] Total protein concentration in the homogenates was determined using the Bradford assay with bovine serum albumin as a standard. […] Samples were vortexed for 15 minutes, centrifuged for 15 minutes at 12,000 rpm, and the supernatants were collected and analysed by RP-HPLC.

Experimental for in vitro: as §2

The half-life is the time in which the quantity being followed falls by half. A lower half-life goes with rapid decline. The amount remaining is the share of the starting amount still present when the sample was taken. Read a high amount remaining as less turnover. As to `CCCCCCCCCCCCCCCC(=O)Oc1ccc(C[C@H](NC(=O)[C@H](CO)NC(=O)[C@H](Cc2c[nH]c3ccccc23)NC(=O)[C@H](Cc2c[nH]cn2)NC(=O)[C@@H](N)CCC(=O)O)C(=O)NCC(=O)N[C@@H](CC(C)C)C(=O)N[C@@H](CCCNC(=N)N)C(=O)N2CCC[C@H]2C(=O)NCC(N)=O)cc1` [TPGnRH, Tyrosine (O-Palmitoyl)-Glu-GnRH], the “cytotoxicity (metabolic activity, MTT)” value in the data set with SC-1800 cells is reported as “no cytotoxicity”. The “effect on cell proliferation” value in the data set with U-87 MG cells [1] is given as “significant reduction in cell proliferation”. Also, the “effect on cell cycle” value in the data set with U-87 MG cells [2] (>7 μM, every two days, 6 days of treatment) was “cell cycle arrest at the G2/M phase”. Besides, in the data set with U-87 MG cells [2] (day 6, TPGnRH alone at 35 μM or TPGnRH 4 days then one dose of PAX-loaded TPGnRH), the “percentage of cells at G2/M” value came to 21.81±3.98%. Moreover, the effect on apoptosis entry in the data set with U-87 MG cells [3] is “trigger apoptosis”. For the same compound, the half-life at 4.03 mM in “in vitro” worked out at 51.9 ± 8.73 h. Moreover, the k in data set [4] (analyte in brackets of label) is 0.1781 min⁻¹. The compound further yielded an amount remaining at 8 h, 4.03 mM in data set [4] (male, Wistar, rat) greater than 80%. In data set [5] (analyte in brackets of label), this compound yielded a Plateau of 359.3 µg/mL, a kα of 0.1678 min⁻¹ and a kβ of 0.005339 min⁻¹. Moreover, the fraction remaining at 8 h, 4.03 mM in data set [5] (male, Wistar, rat) was roughly 50%. Also, in data set [6], the k came out at 0.1781 min⁻¹.
